Laboratory results from patent US10583119B2, “Compounds, compositions and methods for making the same” (Signum Biosciences, Inc., priority 2008, dated 2020).

How the values were obtained:
[1] = target: T1, protein phosphatase specific protein methylesterase (MEase) (Homo sapiens, UniProt Q9Y570); experiment: PP2A demethylation with [3H]-SAM and purified proteins (methylesterase activity); type: biochemical; conditions: purified methylated PP2A and MEase; read-out: ME (IC50)
T1 construct: made in house
T1 sequence (Q9Y570 1-386): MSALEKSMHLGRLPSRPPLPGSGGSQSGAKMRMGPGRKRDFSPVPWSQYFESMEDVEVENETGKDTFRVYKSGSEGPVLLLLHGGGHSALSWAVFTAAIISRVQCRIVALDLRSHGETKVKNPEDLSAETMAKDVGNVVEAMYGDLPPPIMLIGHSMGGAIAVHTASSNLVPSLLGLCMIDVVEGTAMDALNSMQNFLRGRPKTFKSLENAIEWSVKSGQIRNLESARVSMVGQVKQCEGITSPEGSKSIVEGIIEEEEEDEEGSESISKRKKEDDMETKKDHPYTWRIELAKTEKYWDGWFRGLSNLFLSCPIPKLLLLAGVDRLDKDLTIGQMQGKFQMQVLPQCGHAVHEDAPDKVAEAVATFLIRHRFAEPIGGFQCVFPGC
Experimental: PP2A (methylated and unmethylated) were eluted with 1.6 mL of Buffer A containing 350 mM NaCl. Fractions (0.2 mL each) were collected and the radioactivity in each fraction was measured using the scintillation counter (LS 6000SE, Beckman). Fractions with highest radioactivity were containing purified methylated PP2A were pooled with a total volume of 0.6 mL-0.8 mL. Purified methylated PP2A (50 nM-100 nM) was incubated with MEase (5 nM-20 nM) in 20 μl-50 μl reaction at room temperature for 30 minutes. The reaction was terminated by adding TCA (2 μl-6 μl) to a final concentration of 10%. Released [^3H]-methanol in supernatants was counted with scintillation counter (LS 6000SE, Beckman).

PP2A [2] = target: T2, PP2A (Homo sapiens, UniProt P67775); experiment: Phosphatase activity of PP2A using pNPP as substrate; type: biochemical; conditions: un-methylated PP2A, non-protein substrate pNPP, absence of ME and MT
T2 construct: made in house
T2 sequence (P67775 whole entry): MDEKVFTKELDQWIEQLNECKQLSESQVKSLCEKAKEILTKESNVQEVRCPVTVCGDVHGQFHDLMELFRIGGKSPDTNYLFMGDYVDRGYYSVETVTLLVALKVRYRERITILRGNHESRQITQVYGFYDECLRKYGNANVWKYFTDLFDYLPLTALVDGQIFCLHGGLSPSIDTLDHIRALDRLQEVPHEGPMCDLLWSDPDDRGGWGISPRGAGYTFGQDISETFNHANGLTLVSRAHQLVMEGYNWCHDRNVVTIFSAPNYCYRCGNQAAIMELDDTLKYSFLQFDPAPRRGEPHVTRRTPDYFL
T2 sequence (P30153 whole entry partner): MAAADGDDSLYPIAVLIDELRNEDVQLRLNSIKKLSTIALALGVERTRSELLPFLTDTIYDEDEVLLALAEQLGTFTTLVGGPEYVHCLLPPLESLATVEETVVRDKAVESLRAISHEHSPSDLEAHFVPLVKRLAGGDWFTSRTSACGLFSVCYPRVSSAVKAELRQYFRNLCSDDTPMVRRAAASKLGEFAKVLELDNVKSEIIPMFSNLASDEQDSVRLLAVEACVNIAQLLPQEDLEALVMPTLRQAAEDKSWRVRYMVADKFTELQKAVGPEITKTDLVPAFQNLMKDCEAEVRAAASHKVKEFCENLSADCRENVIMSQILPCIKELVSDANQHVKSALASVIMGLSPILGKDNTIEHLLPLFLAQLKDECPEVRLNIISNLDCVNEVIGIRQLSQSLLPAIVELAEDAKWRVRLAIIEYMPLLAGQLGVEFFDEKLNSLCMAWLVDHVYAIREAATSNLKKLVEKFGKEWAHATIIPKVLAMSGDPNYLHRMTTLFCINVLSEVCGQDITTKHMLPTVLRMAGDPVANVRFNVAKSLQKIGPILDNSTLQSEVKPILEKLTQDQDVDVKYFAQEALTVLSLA
Experimental: PP2A (10-200 nM) and pNPP (5-10 mM, Sigma) were mixed into 96-well plate (Fisher Scientific Inc.) in 50 μL of the buffer required. Reactions were performed at room temperature, and fully stopped by adding equal volume of 0.1 M EDTA. Production of p-nitrophenol […] was quantified by absorbance of reaction mixtures at 405 nm using the VMax® microplate reader (Molecular Devices).

Ob/Ob Mice = experiment: Non-fasted glucose levels in ob/ob mice; type: in vivo
Description: They are also hypometabolic and hypothermic. The obesity is characterized by an increase in both the number and the size of adipocytes. Although hyperphagia contributes to the obesity, homozygotes gain excess weight and deposit excess fat even when restricted to a diet sufficient for normal weight maintenance in lean mice. Mice heterozygous for the Lep^ob mutation appear like wild-type and are lean.
Forty-eight (48) B6.V-Lep^ob/J mice (00632, The Jackson Laboratory, JAX^6 mice), homozygous for the Lep^ob mutation and thirty six (36) controls B6.V-Lep^ob/J-lean, heterozygous for the Lep^ob mutation were used to study the effect of SIG1012 on non-fasted glucose levels. The mice were ear notched for identification and housed in individually and positively ventilated polycarbonate cages with HEPA filtered air at a density of 3 mice per cage. Bed-o-cob corn cob bedding was used and cages were changed every two weeks. The animal room was lighted entirely with artificial fluorescent lighting, with a controlled 12 h light/dark cycle (7 am to 7 pm light). The normal temperature and relative humidity ranges in the animal rooms were 22±4° C. and 50±15%, respectively. The animal rooms were set to have 15 air exchanges per hour. Filtered tap water, acidified to a pH of 2.8 to 3.2, and LabDiet AIN-76A was provided ad libitum.
Following acclimation, mice were assigned to groups A through G according to their body weight and genotype:
A Lean heterozygotes—B6.V-Lep^ob/J-lean Mice Fed Control Diet (AIN-76A);
B Lean heterozygotes—B6.V-Lep^ob/J-lean Mice Fed “Low” Compound I-63 (AIN-76A with 0.001% Compound I-63);
C Lean heterozygotes—B6.V-Lep^ob/J-lean Mice Fed “Medium” Compound I-63 (AIN-76A with 0.1% Compound I-63);
D Obese homozygotes—B6. V-Lep^ob/J Mice Fed Control Diet (AIN-76A);
E Obese homozygotes—B6N-Lep^ob/J Mice Fed “Low” Compound I-63 (AIN-76A with 0.001% Compound I-63); […]
Mice from Groups A through G were maintained on the respective diet for 14 days and blood glucose levels were measured weekly.

PP2A [3] = target: T2, PP2A; experiment: Phosphatase activity of PP2A using phosphorylase a as substrate; type: biochemical; conditions: un-methylated PP2A, protein substrate phosphorylase a, absence of ME and MT
Experimental: After the reaction, proteins were precipitated by 50% (NH4)2SO4 (final concentration) twice, and collected by centrifugation. The pellet was re-dissolved and dialyzed in a buffer containing 50 mM Tris-HCl (pH6.9) and ImM DTT for 2×2 L at 4° C. overnight. Phosphorylase a (phospho-phosphorylase b) crystallized during the dialysis. The dialysate was centrifuged 14,000 r.p.m at 4° C. for 30 minutes, the supernatant was removed and purified ^32P-labelled phosphorylase a was re-dissolved in +50% glycerol, and stored at −20° C.
To measure PP2A's phosphatase activity, PP2A (5-20 nM) was incubated with phosphorylase a (5-10 μM) at 37° C. 10% TCA (final concentration) and was added to the reaction to precipitate proteins. Supernatant that contains free ^32P-phosphate group was added into scintillation counting solution (Ecoscint, National Diagnostics), and counted by scintillation counter (LS 6000SE, Beckman).

IC50 [1]: < 10 µM | IC50 (PP2A [2]): > 100 µM | IC50 (PP2A [3]): > 100 µM
SMILES: CCCCCCCCCCCCCCCCCCCC(=O)NCCc1c[nH]c2ccc(O)cc12 [Compound I-63, N-(2-(5-hydroxy-1H-indol-3-yl)ethyl)icosanamide]
effect on non-fasted blood glucose levels (Ob/Ob Mice; heterozygous lean mice control): No effect | reduction in non-fasted blood glucose levels (Ob/Ob Mice; homozygous obese mice, compound in diet for 14 days): 26-30%
